# Assay results reported in ChEMBL document CHEMBL1201862, “PubChem BioAssay data set” (2004).
#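 Briefly, cells in 96-well plates were exposed to five compound concentrations for 48 h, and endpoints were estimated by linear interpolation. GI50 is the concentration that inhibits growth by half.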 Active and inactive are the calls of the source. Cut-off read from the data, not from the text of the source: active = GI50 up to about 1.1 µM and inactive = higher. Where a SMILES comes first, the peptide text is derived from it. The star is where a group is joined. Boc = CC(C)(C)OC(=O)*; OBn = c1ccc(CO*)cc1
# Columns and labels:
# Assay in all cases: growth of human tumour cells (NCI), 48 h
# RXF 393 = tested on: RXF 393
# ACHN = tested on: ACHN
# HT-29 = tested on: HT-29
# DU-145 = tested on: DU-145
# NCI-H226 = tested on: NCI-H226
# NCI-H522 = tested on: NCI-H522
# SF-539 = tested on: SF-539
# SK-OV-3 = tested on: SK-OV-3
# OVCAR-8 = tested on: OVCAR-8
# TK-10 = tested on: TK-10
# U-251 = tested on: U-251
# UACC-257 = tested on: UACC-257
# MOLT-4 = tested on: MOLT-4
# KM12 = tested on: KM12
# RPMI-8226 = tested on: RPMI-8226
# HCT-15 = tested on: HCT-15
# MCF7 = tested on: MCF7
# HCT-116 = tested on: HCT-116
# SR = tested on: SR
Structure (SMILES),GI50 (RXF 393),GI50 (ACHN),GI50 (HT-29),GI50 (DU-145),GI50 (NCI-H226),GI50 (NCI-H522),GI50 (SF-539),GI50 (SK-OV-3),GI50 (OVCAR-8),GI50 (TK-10),GI50 (U-251),GI50 (UACC-257),GI50 (MOLT-4),GI50 (KM12),GI50 (RPMI-8226),GI50 (HCT-15),GI50 (MCF7),GI50 (HCT-116),GI50 (SR)
Clc1ccc(OCc2nnc(CCCCCCCCc3nnc(COc4ccc(Cl)cc4)n3Nc3ccccc3)n2Nc2ccccc2)cc1,21.8 µM (inactive),1.16 µM (inactive),5.24 µM (inactive),19.1 µM (inactive),9.62 µM (inactive),2.82 µM (inactive),0.962 µM (active),17.1 µM (inactive),30.4 µM (inactive),23.7 µM (inactive),23.5 µM (inactive),7.35 µM (inactive),12.3 µM (inactive),11.2 µM (inactive),0.21 µM (active),4.06 µM,3.75 µM (inactive),4.44 µM (inactive),
O=C1C[C@@H](Sc2ccccc2)C2(OCCO2)[C@H]2ON3CCC[C@@H]3[C@@H]12,,3.4 µM (inactive),1.17 µM (inactive),2.55 µM (inactive),7.67 µM (inactive),,2.87 µM (inactive),13.2 µM (inactive),2.03 µM (inactive),6.71 µM (inactive),3.33 µM (inactive),13.4 µM (inactive),1.04 µM (active),4.4 µM (inactive),2.85 µM (inactive),2.44 µM,3.33 µM (inactive),1.55 µM (inactive),1.3 µM (inactive)
C=C(C)[C@H]1CC(=O)[C@@]2(C)C[C@H]3O[C@]3(C)CC/C=C(\C)CC[C@H]12,33.8 µM (inactive),42.9 µM (inactive),34.1 µM (inactive),99.5 µM (inactive),31.7 µM (inactive),37.1 µM (inactive),42 µM (inactive),63.2 µM (inactive),98.4 µM (inactive),22.2 µM (inactive),51.9 µM (inactive),19.4 µM (inactive),24 µM (inactive),16 µM (inactive),33.4 µM (inactive),47.2 µM,24.8 µM (inactive),33.9 µM (inactive),
C/C(=N\Nc1nc2cc(Cl)ccc2s1)c1ccccn1,1.99 µM (inactive),0.191 µM (active),0.0824 µM (active),,0.32 µM (active),0.189 µM (active),1.21 µM (inactive),0.404 µM (active),0.177 µM (active),2.74 µM (inactive),0.877 µM (active),0.519 µM (active),0.0346 µM (active),0.63 µM (active),0.264 µM (active),0.111 µM,0.0867 µM (active),0.301 µM (active),0.228 µM (active)
O=C(O)CC1NC(/C(=C/c2ccccc2O)NC(=O)c2ccccc2)OC1=O (configuration not stated),29 µM (inactive),19.3 µM (inactive),> 96.6 µM (inactive),> 79.6 µM (inactive),17 µM (inactive),33 µM (inactive),22.3 µM (inactive),23 µM (inactive),27.3 µM (inactive),61 µM (inactive),24.7 µM (inactive),> 58.5 µM (inactive),> 100 µM (inactive),5.14 µM (inactive),> 100 µM (inactive),30 µM,3.97 µM (inactive),45.9 µM (inactive),
O=C(Sc1c(-c2ccccc2)c(=O)n(-c2ccccc2)c(=S)n1-c1ccccc1)c1cccs1,,81.8 µM (inactive),72.3 µM (inactive),> 100 µM (inactive),> 100 µM (inactive),29.2 µM (inactive),,35 µM (inactive),73.3 µM (inactive),> 100 µM (inactive),84.1 µM (inactive),60.3 µM (inactive),18.7 µM (inactive),> 100 µM (inactive),24.4 µM (inactive),34.7 µM,50.4 µM (inactive),56.2 µM (inactive),38.4 µM (inactive)
CCc1cccc(C(C)C)c1NC(=O)C(=O)Nn1c(S)nc2ccccc2c1=O,> 100 µM (inactive),> 100 µM (inactive),> 100 µM (inactive),,> 100 µM (inactive),> 100 µM (inactive),> 100 µM (inactive),> 100 µM (inactive),> 100 µM (inactive),> 100 µM (inactive),> 100 µM (inactive),> 100 µM (inactive),> 100 µM (inactive),> 100 µM (inactive),> 100 µM (inactive),> 100 µM,> 100 µM (inactive),> 100 µM (inactive),77.3 µM (inactive)
COc1cc2c(cc1OC)[C@H](C)N1CCc3cc(OC)c(OC)cc3[C@@H]1C2,,> 100 µM (inactive),> 100 µM (inactive),> 100 µM (inactive),> 100 µM (inactive),> 100 µM (inactive),> 100 µM (inactive),> 100 µM (inactive),> 100 µM (inactive),> 100 µM (inactive),> 100 µM (inactive),> 100 µM (inactive),> 100 µM (inactive),> 100 µM (inactive),> 100 µM (inactive),> 100 µM,> 100 µM (inactive),> 100 µM (inactive),
CC(C)(C)OC(=O)NC(Cc1ccccc1)C(=O)NC(Cc1ccccc1)C(=O)NCC(=O)OCc1ccccc1 (stereo not drawn) (Boc-Phe-Phe-Gly-OBn; configuration not given here),,47.3 µM (inactive),16.7 µM (inactive),17.9 µM (inactive),,6 µM (inactive),19 µM (inactive),22.8 µM (inactive),30.1 µM (inactive),19.7 µM (inactive),18.7 µM (inactive),> 100 µM (inactive),22.2 µM (inactive),,15.4 µM (inactive),17.9 µM,51.5 µM (inactive),18.3 µM (inactive),18.4 µM (inactive)
O=C1Cc2c([nH]c3ccc([N+](=O)[O-])cc23)-c2ccccc2N1 [ALSTERPAULLONE],0.284 µM (active),0.288 µM (active),0.389 µM (active),0.209 µM (active),0.275 µM (active),1.22 µM (inactive),0.397 µM (active),2.3 µM (inactive),0.446 µM (active),0.757 µM (active),0.471 µM (active),1.11 µM (active),0.312 µM (active),0.165 µM (active),0.438 µM (active),0.237 µM,0.508 µM (active),0.116 µM (active),
NS(=O)(=O)c1cc2c(cc1Cl)NCNS2(=O)=O [HYDROCHLOROTHIAZIDE],,> 100 µM (inactive),> 100 µM (inactive),> 100 µM (inactive),> 100 µM (inactive),> 100 µM (inactive),> 100 µM (inactive),,> 100 µM (inactive),> 100 µM (inactive),> 100 µM (inactive),> 100 µM (inactive),> 100 µM (inactive),> 100 µM (inactive),> 100 µM (inactive),> 100 µM,> 100 µM (inactive),> 100 µM (inactive),> 100 µM (inactive)
